Legend:
[1] = molecular target: CDK2/Cyclin E (Homo sapiens, UniProt P24941); assay: CDK2/Cyclin E biochemical phosphorylation assay (Caliper mobility shift); details: apparent IC50; 1.0 mM ATP or ATP Km; 1.25 nM enzyme; 25° C.; read-out: CDK2/cyclin E1 IC50
Summary of the method: (§1)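 Caliper electrophoretic separation of substrate and phosphopeptide gave apparent IC50s. Enzymes: CDK1/Cyclin B1 GST-tag 1.5 nM, CDK2/Cyclin E 1.25 nM; ATP 1.0 mM or at Km; 7.5 µM FL-peptide; pH 7.5 HEPES buffer, 1% DMSO; room temperature until 10–20% phosphorylated, then EDTA quench.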

[2] = molecular target: T1, CDK1/Cyclin B1, GST-tag (Homo sapiens, UniProt P06493); assay: CDK1/Cyclin B1 biochemical phosphorylation assay (Caliper mobility shift); details: apparent IC50; 1.0 mM ATP or ATP Km; 1.5 nM enzyme; 25° C.
T1 construct: GST
T1 sequence (P06493 whole entry): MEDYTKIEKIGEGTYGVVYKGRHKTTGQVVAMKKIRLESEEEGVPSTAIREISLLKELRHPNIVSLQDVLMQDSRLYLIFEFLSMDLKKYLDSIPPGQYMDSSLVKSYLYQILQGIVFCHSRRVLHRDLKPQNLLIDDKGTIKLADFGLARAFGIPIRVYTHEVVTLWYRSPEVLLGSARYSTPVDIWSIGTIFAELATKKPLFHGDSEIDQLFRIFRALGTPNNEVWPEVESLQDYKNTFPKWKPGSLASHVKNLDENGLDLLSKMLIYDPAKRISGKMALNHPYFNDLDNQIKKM
T1 sequence (P14635 whole entry partner): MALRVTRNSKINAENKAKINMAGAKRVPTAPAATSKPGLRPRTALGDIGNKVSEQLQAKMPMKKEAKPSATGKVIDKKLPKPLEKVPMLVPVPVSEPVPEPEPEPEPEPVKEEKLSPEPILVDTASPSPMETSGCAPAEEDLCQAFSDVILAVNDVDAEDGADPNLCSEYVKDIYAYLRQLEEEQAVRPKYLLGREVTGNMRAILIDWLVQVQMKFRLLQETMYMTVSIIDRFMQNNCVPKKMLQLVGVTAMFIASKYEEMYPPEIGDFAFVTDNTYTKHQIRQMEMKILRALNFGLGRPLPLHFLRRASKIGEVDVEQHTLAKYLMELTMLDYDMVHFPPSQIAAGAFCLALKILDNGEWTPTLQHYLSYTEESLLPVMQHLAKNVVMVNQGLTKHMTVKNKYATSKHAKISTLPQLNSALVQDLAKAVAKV
Summary of the method: as §1

Row | Structure (SMILES) | IC50 [1] [nM] | IC50 [2] [nM]
1 | FC(F)Oc1cc(Nc2cnc3cnn(CC4CCOCC4)c3n2)n[nH]1 [Example 2, N-(5-(difluoromethoxy)-1H-pyrazol-3-yl)-1-((tetrahydro-2H-pyran-4-yl)methyl)-1H-pyrazolo[3,4-b]pyrazin-6-amine] | ≤ 10 | 100 to 500
2 | O[C@H]1CC[C@H](n2ncc3ncc(Nc4cc(OC(F)F)[nH]n4)nc32)CC1 [Example 3, (1r,4r)-4-(6-((5-(difluoromethoxy)-1H-pyrazol-3-yl)amino)-1H-pyrazolo[3,4-b]pyrazin-1-yl)cyclohexan-1-ol] | ≤ 10 | 100 to 500
3 | C[C@@H](c1ccccn1)n1ncc2ncc(Nc3cc(OC(F)F)[nH]n3)nc21 [Example 4, (S)—N-(5-(difluoromethoxy)-1H-pyrazol-3-yl)-1-(1-(pyridin-2-yl)ethyl)-1H-pyrazolo[3,4-b]pyrazin-6-amine] | ≤ 10 | ≥ 500
4 | Fc1ncccc1Cn1ncc2ncc(Nc3cc(OC(F)F)[nH]n3)nc21 [Example 7, N-(5-(difluoromethoxy)-1H-pyrazol-3-yl)-1-((2-fluoropyridin-3-yl)methyl)-1H-pyrazolo[3,4-b]pyrazin-6-amine] | ≤ 10 | 100 to 500
5 | C[C@@H](c1cccnc1F)n1ncc2ncc(Nc3cc(OC(F)F)[nH]n3)nc21 [Example 8, (S)—N-(5-(difluoromethoxy)-1H-pyrazol-3-yl)-1-(1-(2-fluoropyridin-3-yl)ethyl)-1H-pyrazolo[3,4-b]pyrazin-6-amine] | ≤ 10 | < 100
6 | CC(C)(C1CC1)n1ncc2ncc(Nc3cc(OC(F)F)[nH]n3)nc21 [Example 23, 1-(2-cyclopropylpropan-2-yl)-N-(5-(difluoromethoxy)-1H-pyrazol-3-yl)-1H-pyrazolo[3,4-b]pyrazin-6-amine] | ≤ 10 | 100 to 500
7 | C[C@H](C1CCOCC1)n1ncc2ncc(Nc3cc(OC(F)F)[nH]n3)nc21 [Example 34, (R)-N-(5-(difluoromethoxy)-1H-pyrazol-3-yl)-1-(1-(tetrahydro-2H-pyran-4-yl)ethyl)-1H-pyrazolo[3,4-b]pyrazin-6-amine] | 10 to 20 | ≥ 500
8 | Fc1cccc(Cn2ncc3ncc(Nc4cc(OC(F)F)[nH]n4)nc32)c1 [Example 39, N-(5-(difluoromethoxy)-1H-pyrazol-3-yl)-1-(3-fluorobenzyl)-1H-pyrazolo[3,4-b]pyrazin-6-amine] | 20 to 30 | ≥ 500
9 | Fc1ccc(Cn2ncc3ncc(Nc4cc(OC(F)F)[nH]n4)nc32)cc1 [Example 40, N-(5-(difluoromethoxy)-1H-pyrazol-3-yl)-1-(4-fluorobenzyl)-1H-pyrazolo[3,4-b]pyrazin-6-amine] | 10 to 20 | ≥ 500
10 | Fc1ccc(Cn2ncc3ncc(Nc4cc(OC(F)F)[nH]n4)nc32)cn1 [Example 41, N-(5-(difluoromethoxy)-1H-pyrazol-3-yl)-1-((6-fluoropyridin-3-yl)methyl)-1H-pyrazolo[3,4-b]pyrazin-6-amine] | ≤ 10 | ≥ 500
11 | FC(F)Oc1cc(Nc2cnc3cnn(C4CCC(F)(F)CC4)c3n2)n[nH]1 [Example 44, 1-(4,4-difluorocyclohexyl)-N-(5-(difluoromethoxy)-1H-pyrazol-3-yl)-1H-pyrazolo[3,4-b]pyrazin-6-amine] | 10 to 20 | ≥ 500
12 | C[C@@H](c1ccccc1F)n1ncc2ncc(Nc3cc(OC(F)F)[nH]n3)nc21 [Example 46, (S)-N-(5-(difluoromethoxy)-1H-pyrazol-3-yl)-1-(1-(2-fluorophenyl)ethyl)-1H-pyrazolo[3,4-b]pyrazin-6-amine] | ≤ 10 | ≥ 500
13 | C[C@@H](c1ccc(F)cc1)n1ncc2ncc(Nc3cc(OC(F)F)[nH]n3)nc21 [Example 47, (S)-N-(5-(difluoromethoxy)-1H-pyrazol-3-yl)-1-(1-(4-fluorophenyl)ethyl)-1H-pyrazolo[3,4-b]pyrazin-6-amine] | ≤ 10 | ≥ 500
14 | OC1(Cn2ncc3ncc(Nc4cc(OC(F)F)[nH]n4)nc32)CCOCC1 [Example 49, 4-((6-((5-(difluoromethoxy)-1H-pyrazol-3-yl)amino)-1H-pyrazolo[3,4-b]pyrazin-1-yl)methyl)tetrahydro-2H-pyran-4-ol] | ≤ 10 | 100 to 500
15 | C[C@@H](c1ncccc1F)n1ncc2ncc(Nc3cc(OC(F)F)[nH]n3)nc21 [Example 50, (S)-N-(5-(difluoromethoxy)-1H-pyrazol-3-yl)-1-(1-(3-fluoropyridin-2-yl)ethyl)-1H-pyrazolo[3,4-b]pyrazin-6-amine] | ≤ 10 | ≥ 500
16 | C[C@@H](C1CC1)n1ncc2ncc(Nc3cc(OC(F)F)[nH]n3)nc21 [Example 51, (S)-1-(1-cyclopropylethyl)-N-(5-(difluoromethoxy)-1H-pyrazol-3-yl)-1H-pyrazolo[3,4-b]pyrazin-6-amine] | ≤ 10 | 100 to 500
17 | C[C@H](C1CC1)n1ncc2ncc(Nc3cc(OC(F)F)[nH]n3)nc21 [Example 55, (R)-1-(1-cyclopropylethyl)-N-(5-(difluoromethoxy)-1H-pyrazol-3-yl)-1H-pyrazolo[3,4-b]pyrazin-6-amine] | ≤ 10 | ≥ 500

Other lines, results leading:

Row | IC50 [1] [nM] | IC50 [2] [nM] | Structure (SMILES)
18 | ≤ 10 | 100 to 500 | C[C@@H](c1cccnc1)n1ncc2ncc(Nc3cc(OC(F)F)[nH]n3)nc21 [Example 1, (S)—N-(5-(difluoromethoxy)-1H-pyrazol-3-yl)-1-(1-(pyridin-3-yl)ethyl)-1H-pyrazolo[3,4-b]pyrazin-6-amine]
19 | ≤ 10 | 100 to 500 | C[C@@H](c1cccnc1F)n1nc(Cl)c2ncc(Nc3cc(OC(F)F)[nH]n3)nc21 [Example 17, (S)-3-chloro-N-(5-(difluoromethoxy)-1H-pyrazol-3-yl)-1-(1-(2-fluoropyridin-3-yl)ethyl)-1H-pyrazolo[3,4-b]pyrazin-6-amine]
20 | ≤ 10 | 100 to 500 | COc1cc(Nc2cnc3cnn([C@@H](C)C4CCOCC4)c3n2)n[nH]1 [Example 22, (S)—N-(5-methoxy-1H-pyrazol-3-yl)-1-(1-(tetrahydro-2H-pyran-4-yl)ethyl)-1H-pyrazolo[3,4-b]pyrazin-6-amine]
21 | 20 to 30 | ≥ 500 | OC[C@@H](C1CCOCC1)n1ncc2ncc(Nc3cc(OC(F)F)[nH]n3)nc21 [Example 30, (R)-2-(6-((5-(difluoromethoxy)-1H-pyrazol-3-yl)amino)-1H-pyrazolo[3,4-b]pyrazin-1-yl)-2-(tetrahydro-2H-pyran-4-yl)ethan-1-ol]
22 | ≤ 10 | ≥ 500 | FC(F)Oc1cc(Nc2cnc3cnn(Cc4cccnc4)c3n2)n[nH]1 [Example 35, N-(5-(difluoromethoxy)-1H-pyrazol-3-yl)-1-(pyridin-3-ylmethyl)-1H-pyrazolo[3,4-b]pyrazin-6-amine]
23 | 20 to 30 | ≥ 500 | FC(F)Oc1cc(Nc2cnc3cnn(Cc4ccccc4)c3n2)n[nH]1 [Example 36, 1-benzyl-N-(5-(difluoromethoxy)-1H-pyrazol-3-yl)-1H-pyrazolo[3,4-b]pyrazin-6-amine]
24 | 20 to 30 | ≥ 500 | Fc1ccccc1Cn1ncc2ncc(Nc3cc(OC(F)F)[nH]n3)nc21 [Example 37, N-(5-(difluoromethoxy)-1H-pyrazol-3-yl)-1-(2-fluorobenzyl)-1H-pyrazolo[3,4-b]pyrazin-6-amine]
25 | ≤ 10 | 100 to 500 | CCOc1cc(Nc2cnc3cnn(CC4CCOCC4)c3n2)n[nH]1 [Example 38, N-(5-ethoxy-1H-pyrazol-3-yl)-1-((tetrahydro-2H-pyran-4-yl)methyl)-1H-pyrazolo[3,4-b]pyrazin-6-amine]
26 | 20 to 30 | ≥ 500 | Fc1cncc(Cn2ncc3ncc(Nc4cc(OC(F)F)[nH]n4)nc32)c1 [Example 42, N-(5-(difluoromethoxy)-1H-pyrazol-3-yl)-1-((5-fluoropyridin-3-yl)methyl)-1H-pyrazolo[3,4-b]pyrazin-6-amine]
27 | ≤ 10 | ≥ 500 | C[C@@H](c1cccc(F)c1)n1ncc2ncc(Nc3cc(OC(F)F)[nH]n3)nc21 [Example 43, (S)-N-(5-(difluoromethoxy)-1H-pyrazol-3-yl)-1-(1-(3-fluorophenyl)ethyl)-1H-pyrazolo[3,4-b]pyrazin-6-amine]
28 | ≤ 10 | ≥ 500 | COc1cc(Nc2cnc3cnn([C@@H](C)c4ccccn4)c3n2)n[nH]1 [Example 45, (S)-N-(5-methoxy-1H-pyrazol-3-yl)-1-(1-(pyridin-2-yl)ethyl)-1H-pyrazolo[3,4-b]pyrazin-6-amine]
29 | ≤ 10 | ≥ 500 | C[C@@H](c1ccc(F)cn1)n1ncc2ncc(Nc3cc(OC(F)F)[nH]n3)nc21 [Example 48, (S)-N-(5-(difluoromethoxy)-1H-pyrazol-3-yl)-1-(1-(5-fluoropyridin-2-yl)ethyl)-1H-pyrazolo[3,4-b]pyrazin-6-amine]
30 | 30 to 100 | ≥ 500 | FC(F)Oc1cc(Nc2cnc3cnn(Cc4cscn4)c3n2)n[nH]1 [Example 52, N-(5-(difluoromethoxy)-1H-pyrazol-3-yl)-1-(thiazol-4-ylmethyl)-1H-pyrazolo[3,4-b]pyrazin-6-amine]
31 | ≤ 10 | ≥ 500 | FC(F)Oc1cc(Nc2cnc3cnn(Cc4cncs4)c3n2)n[nH]1 [Example 53, N-(5-(difluoromethoxy)-1H-pyrazol-3-yl)-1-(thiazol-5-ylmethyl)-1H-pyrazolo[3,4-b]pyrazin-6-amine]
32 | 30 to 100 | ≥ 500 | FC(F)Oc1cc(Nc2cnc3cnn(Cc4nccs4)c3n2)n[nH]1 [Example 54, N-(5-(difluoromethoxy)-1H-pyrazol-3-yl)-1-(thiazol-2-ylmethyl)-1H-pyrazolo[3,4-b]pyrazin-6-amine]

Reference: patent publication US11970498B2, “CDK2 inhibitors” (BLUEPRINT MEDICINES CORPORATION, priority 2021, dated 2024)
